PubChem BioAssay (NCI)
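Briefly, cells in 96-well plates were exposed to five compound concentrations for 48 h, and endpoints were estimated by linear interpolation. GI50 = concentration required for 50% inhibition of growth. TGI denotes the concentration required for complete inhibition of growth.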

Key:
Assay in all cases: inhibition of tumour cell growth, NCI panel, 48 h
786-0 renal = tested on: 786-0 renal
A498 renal = tested on: A498 renal
A549 NSCLC = tested on: A549 NSCLC
BT-549 breast = tested on: BT-549 breast
CAKI-1 renal = tested on: CAKI-1 renal
CCRF-CEM leukemia = tested on: CCRF-CEM leukemia
COLO 205 colon = tested on: COLO 205 colon
DU-145 prostate = tested on: DU-145 prostate
EKVX NSCLC = tested on: EKVX NSCLC
HCC-2998 colon = tested on: HCC-2998 colon
HCT-116 colon = tested on: HCT-116 colon
HCT-15 colon = tested on: HCT-15 colon
HL-60(TB) leukemia = tested on: HL-60(TB) leukemia
HOP-62 NSCLC = tested on: HOP-62 NSCLC
HOP-92 NSCLC = tested on: HOP-92 NSCLC
HS 578T breast = tested on: HS 578T breast
HT29 colon = tested on: HT29 colon
IGROV1 ovarian = tested on: IGROV1 ovarian
K-562 leukemia = tested on: K-562 leukemia
KM12 colon = tested on: KM12 colon
LOX IMVI melanoma = tested on: LOX IMVI melanoma
M14 melanoma = tested on: M14 melanoma
MALME-3M melanoma = tested on: MALME-3M melanoma
MCF7 breast = tested on: MCF7 breast
MDA-MB-231 breast = tested on: MDA-MB-231 breast
MDA-MB-435 = tested on: MDA-MB-435
MDA-MB-468 breast = tested on: MDA-MB-468 breast
MOLT-4 leukemia = tested on: MOLT-4 leukemia
NCI-H23 lung = tested on: NCI-H23 lung
NCI-H460 lung = tested on: NCI-H460 lung
NCI-H522 lung = tested on: NCI-H522 lung
NCI/ADR-RES ovarian = tested on: NCI/ADR-RES ovarian
OVCAR-3 ovarian = tested on: OVCAR-3 ovarian
OVCAR-4 ovarian = tested on: OVCAR-4 ovarian
OVCAR-5 ovarian = tested on: OVCAR-5 ovarian
OVCAR-8 ovarian = tested on: OVCAR-8 ovarian
PC-3 prostate = tested on: PC-3 prostate
RPMI-8226 leukemia = tested on: RPMI-8226 leukemia
RXF 393 renal = tested on: RXF 393 renal
SF-268 CNS = tested on: SF-268 CNS
SF-295 CNS = tested on: SF-295 CNS
SF-539 CNS = tested on: SF-539 CNS
SK-MEL-2 melanoma = tested on: SK-MEL-2 melanoma
SK-MEL-28 melanoma = tested on: SK-MEL-28 melanoma
SK-MEL-5 melanoma = tested on: SK-MEL-5 melanoma
SK-OV-3 ovarian = tested on: SK-OV-3 ovarian
SN12C renal = tested on: SN12C renal
SNB-19 CNS = tested on: SNB-19 CNS
SNB-75 CNS = tested on: SNB-75 CNS
SR leukemia = tested on: SR leukemia
SW-620 colon = tested on: SW-620 colon
T-47D breast = tested on: T-47D breast
TK-10 renal = tested on: TK-10 renal
U251 CNS = tested on: U251 CNS
UACC-257 melanoma = tested on: UACC-257 melanoma
UACC-62 melanoma = tested on: UACC-62 melanoma
UO-31 renal = tested on: UO-31 renal

COc1ccc(-c2nc3ccc(-c4nnc(SCc5ccccc5)o4)cc3[nH]2)cc1OC
GI50 (786-0 renal): 5.88 µM
TGI (786-0 renal): 40.2 µM
GI50 (A498 renal): > 100 µM
TGI (A498 renal): > 100 µM
GI50 (A549 NSCLC): 4.8 µM
TGI (A549 NSCLC): > 100 µM
GI50 (BT-549 breast): 21.3 µM
TGI (BT-549 breast): > 100 µM
GI50 (CAKI-1 renal): > 100 µM
TGI (CAKI-1 renal): > 100 µM
GI50 (CCRF-CEM leukemia): 16.7 µM
TGI (CCRF-CEM leukemia): > 100 µM
GI50 (COLO 205 colon): 38 µM
TGI (COLO 205 colon): > 100 µM
GI50 (DU-145 prostate): 9.71 µM
TGI (DU-145 prostate): > 100 µM
GI50 (EKVX NSCLC): 24.9 µM
TGI (EKVX NSCLC): > 100 µM
GI50 (HCC-2998 colon): 57 µM
TGI (HCC-2998 colon): > 100 µM
GI50 (HCT-116 colon): 8.32 µM
TGI (HCT-116 colon): > 100 µM
GI50 (HCT-15 colon): 13.8 µM
TGI (HCT-15 colon): > 100 µM
GI50 (HL-60(TB) leukemia): 57.5 µM
TGI (HL-60(TB) leukemia): > 100 µM
GI50 (HOP-62 NSCLC): 3.88 µM
TGI (HOP-62 NSCLC): 23.2 µM
GI50 (HOP-92 NSCLC): 4.17 µM
TGI (HOP-92 NSCLC): 94.6 µM
GI50 (HS 578T breast): 3.5 µM
TGI (HS 578T breast): > 100 µM
GI50 (HT29 colon): 16.2 µM
TGI (HT29 colon): > 100 µM
GI50 (IGROV1 ovarian): 36 µM
TGI (IGROV1 ovarian): > 100 µM
GI50 (K-562 leukemia): 28.3 µM
TGI (K-562 leukemia): > 100 µM
GI50 (KM12 colon): > 100 µM
TGI (KM12 colon): > 100 µM
GI50 (LOX IMVI melanoma): 4.74 µM
TGI (LOX IMVI melanoma): > 100 µM
GI50 (M14 melanoma): 26.5 µM
TGI (M14 melanoma): > 100 µM
GI50 (MALME-3M melanoma): 3.18 µM
TGI (MALME-3M melanoma): 11.5 µM
GI50 (MCF7 breast): 13.8 µM
TGI (MCF7 breast): > 100 µM
GI50 (MDA-MB-231 breast): 4.28 µM
TGI (MDA-MB-231 breast): 23.2 µM
GI50 (MDA-MB-435): 21 µM
TGI (MDA-MB-435): > 100 µM
GI50 (MDA-MB-468 breast): 7.89 µM
TGI (MDA-MB-468 breast): 38.6 µM
GI50 (MOLT-4 leukemia): 27.8 µM
TGI (MOLT-4 leukemia): > 100 µM
GI50 (NCI-H23 lung): 11 µM
TGI (NCI-H23 lung): 79.9 µM
GI50 (NCI-H460 lung): 5.67 µM
TGI (NCI-H460 lung): > 100 µM
GI50 (NCI-H522 lung): 23 µM
TGI (NCI-H522 lung): > 100 µM
GI50 (NCI/ADR-RES ovarian): 11.1 µM
TGI (NCI/ADR-RES ovarian): > 100 µM
GI50 (OVCAR-3 ovarian): 4.73 µM
TGI (OVCAR-3 ovarian): 88.9 µM
GI50 (OVCAR-4 ovarian): 3.08 µM
TGI (OVCAR-4 ovarian): 12.3 µM
GI50 (OVCAR-5 ovarian): 32.4 µM
TGI (OVCAR-5 ovarian): > 100 µM
GI50 (OVCAR-8 ovarian): 5.6 µM
TGI (OVCAR-8 ovarian): > 100 µM
GI50 (PC-3 prostate): 19.8 µM
TGI (PC-3 prostate): > 100 µM
GI50 (RPMI-8226 leukemia): 21.7 µM
TGI (RPMI-8226 leukemia): > 100 µM
GI50 (RXF 393 renal): 3.6 µM
TGI (RXF 393 renal): > 100 µM
GI50 (SF-268 CNS): 32.7 µM
TGI (SF-268 CNS): > 100 µM
GI50 (SF-295 CNS): 5.54 µM
TGI (SF-295 CNS): > 100 µM
GI50 (SF-539 CNS): 6.54 µM
TGI (SF-539 CNS): > 100 µM
GI50 (SK-MEL-2 melanoma): > 100 µM
TGI (SK-MEL-2 melanoma): > 100 µM
GI50 (SK-MEL-28 melanoma): 22 µM
TGI (SK-MEL-28 melanoma): > 100 µM
GI50 (SK-MEL-5 melanoma): 7.88 µM
TGI (SK-MEL-5 melanoma): > 100 µM
GI50 (SK-OV-3 ovarian): > 100 µM
TGI (SK-OV-3 ovarian): > 100 µM
GI50 (SN12C renal): 7.15 µM
TGI (SN12C renal): > 100 µM
GI50 (SNB-19 CNS): > 100 µM
TGI (SNB-19 CNS): > 100 µM
GI50 (SNB-75 CNS): 2.24 µM
TGI (SNB-75 CNS): 7.27 µM
GI50 (SR leukemia): 6.45 µM
TGI (SR leukemia): > 100 µM
GI50 (SW-620 colon): 17 µM
TGI (SW-620 colon): > 100 µM
GI50 (T-47D breast): 8.53 µM
TGI (T-47D breast): > 100 µM
GI50 (TK-10 renal): 8.62 µM
TGI (TK-10 renal): 46.7 µM
GI50 (U251 CNS): 4.72 µM
TGI (U251 CNS): 20.4 µM
GI50 (UACC-257 melanoma): 56.4 µM
TGI (UACC-257 melanoma): > 100 µM
GI50 (UACC-62 melanoma): 7.2 µM
TGI (UACC-62 melanoma): 43.8 µM
GI50 (UO-31 renal): 57.4 µM
TGI (UO-31 renal): > 100 µM
